Reference: the NIST ThermoML archive (doi:10.1021/je0601208)

Tests used:
[1] = refractive index (Na D-line) (dimensionless); xn = mol fraction of the nth substance listed; details: 100.5 kPa, Liquid, Standard Abbe refractometry
[2] = xn = mol fraction of the nth substance listed

CCCCCC(=O)OCC [ethyl hexanoate] + CCO
Details | refractive index, 288.15 K | refractive index, 298.15 K | refractive index, 308.15 K | refractive index, 318.15 K | surface tension liquid-gas, 288.15 K [mN/m] | surface tension liquid-gas, 298.15 K [mN/m] | surface tension liquid-gas, 308.15 K [mN/m] | surface tension liquid-gas, 318.15 K [mN/m]
[1], x1 = 0.05 | 1.36942 | 1.36535 | 1.36109 | 1.35703 | – | – | – | –
[1], x1 = 0.1 | 1.37451 | 1.37034 | 1.36602 | 1.36185 | – | – | – | –
[1], x1 = 0.15 | 1.37883 | 1.37461 | 1.37024 | 1.36601 | – | – | – | –
[1], x1 = 0.2 | 1.38253 | 1.37826 | 1.37388 | 1.3696 | – | – | – | –
[1], x1 = 0.25 | 1.38577 | 1.38146 | 1.37706 | 1.37274 | – | – | – | –
[1], x1 = 0.3 | 1.38864 | 1.38429 | 1.37986 | 1.3755 | – | – | – | –
[1], x1 = 0.35 | 1.39119 | 1.38681 | 1.38236 | 1.37795 | – | – | – | –
[1], x1 = 0.4 | 1.39347 | 1.38907 | 1.3846 | 1.38016 | – | – | – | –
[1], x1 = 0.45 | 1.39553 | 1.39111 | 1.38663 | 1.38216 | – | – | – | –
[1], x1 = 0.5 | 1.3974 | 1.39296 | 1.38847 | 1.38398 | – | – | – | –
[1], x1 = 0.55 | 1.3991 | 1.39465 | 1.39016 | 1.38564 | – | – | – | –
[1], x1 = 0.6 | 1.40066 | 1.3962 | 1.3917 | 1.38716 | – | – | – | –
[1], x1 = 0.65 | 1.4021 | 1.39763 | 1.39312 | 1.38857 | – | – | – | –
[1], x1 = 0.7 | 1.40343 | 1.39895 | 1.39444 | 1.38988 | – | – | – | –
[1], x1 = 0.75 | 1.40466 | 1.40019 | 1.39568 | 1.39111 | – | – | – | –
[1], x1 = 0.8 | 1.40579 | 1.40133 | 1.39682 | 1.39225 | – | – | – | –
[1], x1 = 0.85 | 1.40684 | 1.40238 | 1.39787 | 1.3933 | – | – | – | –
[1], x1 = 0.9 | 1.4078 | 1.40334 | 1.39882 | 1.39426 | – | – | – | –
[1], x1 = 0.95 | 1.40868 | 1.40422 | 1.39972 | 1.39515 | – | – | – | –
[1], x1 = 1 | 1.4095 | 1.40504 | 1.40055 | 1.39597 | – | – | – | –
[2], x1 = 0.05 | – | – | – | – | 23.4 | 22.7 | 21.8 | 20.9
[2], x1 = 0.1 | – | – | – | – | 23.8 | 23 | 22.1 | 21.2
[2], x1 = 0.15 | – | – | – | – | 24.1 | 23.2 | 22.4 | 21.5
[2], x1 = 0.2 | – | – | – | – | 24.3 | 23.5 | 22.6 | 21.7
[2], x1 = 0.25 | – | – | – | – | 24.5 | 23.7 | 22.8 | 21.9
[2], x1 = 0.3 | – | – | – | – | 24.7 | 23.9 | 23 | 22
[2], x1 = 0.35 | – | – | – | – | 24.9 | 24 | 23.1 | 22.2
[2], x1 = 0.4 | – | – | – | – | 25.1 | 24.2 | 23.3 | 22.3
[2], x1 = 0.45 | – | – | – | – | 25.2 | 24.3 | 23.4 | 22.5
[2], x1 = 0.5 | – | – | – | – | 25.4 | 24.4 | 23.5 | 22.6
[2], x1 = 0.55 | – | – | – | – | 25.5 | 24.5 | 23.6 | 22.7
[2], x1 = 0.6 | – | – | – | – | 25.6 | 24.6 | 23.7 | 22.8
[2], x1 = 0.65 | – | – | – | – | 25.7 | 24.7 | 23.8 | 22.9
[2], x1 = 0.7 | – | – | – | – | 25.8 | 24.9 | 23.9 | 23
[2], x1 = 0.75 | – | – | – | – | 25.9 | 25 | 24 | 23.1
[2], x1 = 0.8 | – | – | – | – | 26 | 25.1 | 24.1 | 23.2
[2], x1 = 0.85 | – | – | – | – | 26.1 | 25.1 | 24.2 | 23.3
[2], x1 = 0.9 | – | – | – | – | 26.2 | 25.2 | 24.3 | 23.4
[2], x1 = 0.95 | – | – | – | – | 26.3 | 25.3 | 24.4 | 23.5
[2], x1 = 1 | – | – | – | – | 26.4 | 25.4 | 24.5 | 23.6
